In PubChem BioAssay (NCI):
“And” between values parts separate entries of the source, which are not always exact repeats. Equal values may be shown once.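 A five-concentration, 48-hour dose response in 96-well plates underlies each endpoint, interpolated linearly between surrounding concentrations. At the GI50, growth is halved. Definition used: TGI = concentration required for complete inhibition of growth.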

Experiments:
Assay in all cases: inhibition of tumour cell growth, NCI panel, 48 h
[1] = system: U251 CNS
[2] = system: SNB-75 CNS
[3] = system: SR leukemia
[4] = system: TK-10 renal
[5] = system: UO-31 renal
[6] = system: HCT-15 colon
[7] = system: OVCAR-4 ovarian
[8] = system: UACC-62 melanoma
[9] = system: HS 578T breast
[10] = system: MCF7 breast
[11] = system: NCI/ADR-RES ovarian
[12] = system: NCI-H226 lung
[13] = system: UACC-257 melanoma
[14] = system: SN12C renal
[15] = system: MDA-MB-435
[16] = system: LOX IMVI melanoma
[17] = system: RXF 393 renal

SMILES	TGI [1] [µM]	TGI [2] [µM]	TGI [3] [µM]	TGI [4] [µM]	TGI [5] [µM]	TGI [6] [µM]	TGI [7] [µM]	TGI [8] [µM]	TGI [9] [µM]	TGI [10] [µM]	TGI [11] [µM]	TGI [12]	TGI [13] [µM]	TGI [14]	TGI [15] [µM]	TGI [16] [µM]	TGI [17] [µM]	GI50 [12] [µM]
COC(=O)C1CCC(=O)N1CN(C(C)=O)c1ccccc1 (stereo unspecified)	> 100	> 100	> 100	> 100	> 100	> 100	> 100	> 100	> 100	> 100	> 100	> 100 µM	> 100	> 100 µM	> 100	> 100		
CN(C)c1ccc(C=C2C(=O)OC(C)(C)OC2=O)cc1Br	> 100	> 100	> 100	> 100	> 100		> 100	> 100				> 100 µM	> 100	> 100 µM		> 100	> 100	
COc1cc2cc(C(=O)N3CC(CCl)c4ccc(O)cc43)[nH]c2c(OC)c1OC (stereo unspecified)		0.0652	> 100	22.4	0.0429	0.0412		0.00683	0.0588			0.0566 µM and 0.471 µM		0.148 µM and 0.104 µM	0.0158	0.136	0.000301	0.116
COc1ccc(NC(=O)C/C(C)=N\N=C(N)N)c([N+](=O)[O-])c1	> 100	> 100	48.8	> 100	> 100	> 100	> 100	> 100				> 100 µM	> 100	> 100 µM		> 100	> 100	
O=c1cc(-c2ccccc2)[nH]c2cc(O)ccc12	90.7	72.5	62.9	> 100	49.3	30.6	58.1	46.5				> 100 µM	48.2	89.6 µM		34.6	37.5	
CCOC(=O)/C(C(=S)Nc1ccccc1)=C(/N)N1CCCC1	> 100		> 100	> 100	> 100	> 100	> 100	> 100	> 100	> 100	> 100	> 100 µM	> 100	> 100 µM	> 100	> 100	> 100	
COc1cc2c(c(OC)c1OC)C(=O)[C@H](O)[C@H]2NC(N)=O	> 100	> 100		> 100	> 100	> 100		48.5	> 100	> 100	> 100	> 100 µM	> 100	> 100 µM	> 100	> 100	> 100	
C=Cc1c(C)c(OC)cc2c1Oc1ccc(OC)c(C)c1CC2	> 100	> 100	> 100	> 100	> 100	> 100	> 100	> 100	> 100	> 100	> 100	> 100 µM	> 100	> 100 µM	> 100		> 100	
c1ccc2c(C3NCCc4[nH]cnc43)cccc2c1 (stereo unspecified)	> 100	> 100	> 100	> 100	> 100	> 100	> 100	> 100				> 100 µM	> 100	> 100 µM		> 100	> 100	
COc1cc(OC)c(/C=C2\N=C(C)N(Nc3nnc(NN4C(=O)/C(=C/c5c(OC)cc(OC)cc5OC)N=C4C)c4ccccc34)C2=O)c(OC)c1	> 100	> 100	> 100			> 100	> 100	> 100				> 100 µM	> 100	> 100 µM		> 100	> 100	
N#CC(C#N)=Cc1ccc2c(c1)OC(Cl)O2 (stereo unspecified)	41.4	75.4		68.1	30.7	46.4	> 100	59.3		> 100	> 100	38.2 µM	41	51.2 µM	35.7	38.2	52.3	
CNC(=O)N1CN(c2ccccc2)C2(CCN(CCCC(=O)c3ccc(F)cc3)CC2)C1=O	60.4	> 100	69.7	49.5	28.1	33.6		43.4		16	36.6	79.4 µM	24.2	75.4 µM		37.1	54.6	
O=C1OC(CCCl)(c2ccccc2)CC1CN1CCOCC1 (stereo unspecified)	> 100	51.7		30.5	> 100	55.5	> 100	49.4				28 µM	73.4	90.7 µM		83.1	30.9	
C=CCc1cc(OC)c2c(c1)C(O)CC(c1ccccc1)O2 (stereo unspecified)	> 100	> 100	> 100	> 100	> 100	> 100	> 100	> 100				> 100 µM	> 100	> 100 µM				
Cc1cc(N(CCC#N)CCC#N)ccc1/C=C/C(=O)Nc1cccc(Cl)c1	> 100	> 100		> 100	> 100	> 100	> 100	> 100				> 100 µM	> 100	> 100 µM		> 100		
CN(C)CCNC(=O)c1cccc2c(NCC(=O)O)c3ccccc3nc12	> 100	64	> 100	> 100	> 100	> 100	30.9	48.1	50.7	27.8	48.2	30.9 µM		> 100 µM	32.9	> 100		
